From ChEMBL document CHEMBL3352747, “Novel heterocyclic scaffolds of GW4064 as farnesoid X receptor agonists” (Bioorg Med Chem Lett, 2015)

Columns and labels:
Bile acid receptor [1] = molecular target: T1, Bile acid receptor (Homo sapiens, UniProt Q96RI1); test: Agonist activity at FXR (unknown origin) assessed as ligand-mediated interaction of the SRC1 peptide with protein LBD by FRET assay
T1 sequence (Q96RI1 whole entry): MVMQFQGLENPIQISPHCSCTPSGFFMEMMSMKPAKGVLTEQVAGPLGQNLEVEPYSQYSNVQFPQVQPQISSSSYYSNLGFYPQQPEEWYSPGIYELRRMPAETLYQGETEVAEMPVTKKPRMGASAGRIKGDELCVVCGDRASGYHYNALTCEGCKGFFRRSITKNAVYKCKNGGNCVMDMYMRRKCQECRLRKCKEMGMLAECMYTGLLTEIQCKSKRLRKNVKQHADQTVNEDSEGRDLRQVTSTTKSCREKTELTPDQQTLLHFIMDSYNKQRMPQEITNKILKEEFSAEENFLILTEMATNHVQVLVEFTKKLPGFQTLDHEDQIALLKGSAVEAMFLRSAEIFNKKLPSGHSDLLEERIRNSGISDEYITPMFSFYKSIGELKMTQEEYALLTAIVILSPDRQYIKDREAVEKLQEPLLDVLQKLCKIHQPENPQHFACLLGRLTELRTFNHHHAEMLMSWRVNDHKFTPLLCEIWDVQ

Bile acid receptor [2] = molecular target: T1, Bile acid receptor; test: Agonist activity at FXR (unknown origin) transfected into african green monkey CV1 cells assessed as ligand-mediated transcription by luciferase reporter/ transient transfection assay; type: cell-based, CV-1
[3] = molecular target: T2, Bile acid receptor (Homo sapiens) (UniProt Q96RI1); test: Agonist activity at FXR (unknown origin) assessed as ligand-mediated interaction of the SRC1 peptide with protein LBD by FRET assay relative to GW4064
T2 sequence (whole entry): T1 sequence (Q96RI1 whole entry)

[4] = molecular target: T2, Bile acid receptor (Homo sapiens); test: Agonist activity at FXR (unknown origin) transfected into african green monkey CV1 cells assessed as ligand-mediated transcription by luciferase reporter/ transient transfection assay relative to GW4064; type: cell-based; conditions: CV-1

Row | Structure (SMILES) | EC50 (Bile acid receptor [1]) [nM] | EC50 (Bile acid receptor [2]) [nM] | Emax [3] [%] | Emax [4] [%] | EC50 (Bile acid receptor [2]; cv-1) [nM]
1 | CC(C)n1cnc(COc2c(Cl)cccc2Cl)c1COc1ccc(/C=C/c2cccc(C(=O)O)c2)c(Cl)c1 | 309 | 562 | 88 | 62 | 
2 | CC(C)n1nnc(-c2c(Cl)cccc2Cl)c1COc1ccc(/C=C/c2cccc(C(=O)O)c2)c(Cl)c1 | 123 | 145 | 80 | 47 | 
3 | CC(C)c1ncn(CCc2c(Cl)cccc2Cl)c1COc1ccc(/C=C/c2cccc(C(=O)O)c2)c(Cl)c1 | 617 | 676 | 49 | 35 | 
4 | CC(C)c1nnn(-c2c(Cl)cccc2Cl)c1COc1ccc(/C=C/c2cccc(C(=O)O)c2)c(Cl)c1 | 112 | 35 | 106 | 125 | 
5 | CC(C)c1cnn(-c2c(Cl)cccc2Cl)c1COc1ccc(/C=C/c2cccc(C(=O)O)c2)c(Cl)c1 | 42 | 20 | 105 | 100 | 
6 | CC(C)c1oc(=O)n(CCc2c(Cl)cccc2Cl)c1COc1ccc(/C=C/c2cccc(C(=O)O)c2)c(Cl)c1 | 66 | 35 | 99 | 82 | 
7 | CC(C)c1oc(=O)n(Cc2c(Cl)cccc2Cl)c1COc1ccc(/C=C/c2cccc(C(=O)O)c2)c(Cl)c1 | 110 | 54 | 90 | 104 | 
8 | CC(C)c1occ(COc2c(Cl)cccc2Cl)c1COc1ccc(/C=C/c2cccc(C(=O)O)c2)c(Cl)c1 | 1230 |  | 51 |  | < 10000
